According to article PMC4838890, “Dynamic and flexible H3K9me3 bridging via HP1β dimerization establishes a plastic state of condensed chromatin” (Nature Communications, 2016):

Test system: H3K9me0 oligonucleosomes
Assay: Chromatin sedimentation (clustering), H3K9me0 oligonucleosomes
Assay type: biochemical, Xenopus laevis
Conditions: 150 mM NaCl, EtBr fluorescence, n=3
Method: Figure 3 hHP1β clusters oligonuclesomal arrays in dependence of H3K9me3. (a) Oligonucleosomes (2.5 nM) were incubated with increasing concentrations of hHP1β WT or I161A at 150 mM NaCl. DNA remaining in the supernatant after centrifugation was incubated with EtBr and measured by fluorescence reading. Data were normalized to amounts in absence of added protein. Averages of three independent experiments are plotted; error bars represent s.d.; n=3. (b) Analysis of the hydrodynamic radius of oligonucleosomes (10 nM; DNA labelled with ATTO 610) in the presence of increasing concentrations of hHP1β WT or I161A by FCS at 150 mM NaCl. For details on experimental setup see Supplementary Fig. 3. Error bars represent s.d.; n=3. (c) Oligonucleosomes were reconstituted after mixing H3K9me0 and H3K9me3 octamers at different ratio. Chromatin precipitation analysis at 150 mM NaCl was carried out with hHP1β WT at saturating concentration. Data are presented as in a. (d) Precipitation behaviour of oligonucleosomes (2.5 nM) was analysed at different concentrations of NaCl with hHP1β WT at saturating concentration. […] Precipitated material was analysed by western blotting. […] Complexes were fixed with 0.05% (v/v) glutaraldehyde, spotted on mica surfaces and analysed by scanning force microscopy. […] (h) Quantification of results representatively shown in g according to the classification on the top: A, extended; B, partially condensed; C, fully condensed; D; aggregates; n>50 for each condition.
For saturating conditions, 2.7 nM oligonucleosomes were incubated with 5 μM hHP1β proteins in 100 μl sedimentation buffer (10 mM triethanolamine (pH 7.5), 150 mM NaCl, 0.1 mM EDTA) for 1 h on ice. […] For quantification of chromatin DNA, the input and output samples were incubated with 40 μl 0.5 μg ml^−1 ethidium bromide and fluorescence was measured on a Plate CHAMELEON II fluorescence plate reader (Hidex, Turku, Finland) using a 360 nm (±5 nm) excitation filter and a 612 nm (±5 nm) emission filter. For each sample the ratio of DNA concentrations after and before centrifugation (output/input) was calculated. […]

Row | Substance | chromatin clustering/aggregation, H3K9me0 | chromatin clustering/aggregation, H3K9me0 (listed as hHP1β)
1 | hHP1β I161A: CSD point mutant of hHP1β incapable of dimerization | neither the I161A mutant, nor the isolated CD or CSD had any effect on modified or unmodified chromatin | 
2 | hHP1β WT: recombinant human heterochromatin protein 1β (GenBank NM_001127228), 185 aa | efficiently aggregated H3K9me3 but not H3K9me0 oligonucleosomes | No clustering of H3K9me0 chromatin
